According to patent US20230295157A1, “3-(1H-IMIDAZOL-2-YL)-2,3,8,8A-TETRAHYDROINDOLIZIN-5(1H)-ONE DERIVATIVES USEFUL AS FACTOR XIA INHIBITORS” (JANSSEN PHARMACEUTICA NV, priority 2020, published 2023):
Where two headings read alike, the source gives them in different places.

Legend:
human plasma kallikrein = human plasma kallikrein (Homo sapiens (Human), UniProt P03952); test: Kallikrein inhibition assay (FLINT) utilizing a quenched AMC peptide substrate; format: biochemical; details: 30 min preincubation, read-out: Kallikrein Kin Inh IC50
Summary of the method: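 Enzyme (2 nM final) pre-incubated 30 min at room temperature with compound (11-point, 3-fold, top 1 μM, 2% DMSO), then 50 μM Z-Gly-Pro-Arg-AMC added in Tris pH 7.5 buffer. Kinetic fluorescence 340/440 nm every 5 min over 30 min; IC50 from 4-parameter logistic fit.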

Factor XIa = Factor XIa (Homo sapiens (Human), UniProt P03951); test: Factor XIa inhibition assay (FLINT) utilizing a fluorophore-quencher pair peptide substrate; format: biochemical; details: 30 min preincubation, kinetic reads over 30 min, read-out: FXIa Kin Inh IC50
Summary of the method: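 FXIa ([…]) preincubated 30 min with compound (11-point 3-fold dilution, top 100 nM, 2% DMSO), then 15 μM quenched FXI Arg146-based peptide added; Tris pH 7.5, CaCl2, BSA, CHAPS. Fluorescence 485/520 nm read kinetically every 5 min over 30 min at RT; IC50 by 4-parameter fit.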

[1] = kinetic reads over 30 min, Z-Gly-Pro-Arg-AMC substrate 50 μM
[2] = 5Fam-[…]-K5Tamra substrate 15 μM
[3] = 5Fam-KLTRAETV-K5Tamra substrate 15 μM

Chain of Factor XIa (P03951 388-625): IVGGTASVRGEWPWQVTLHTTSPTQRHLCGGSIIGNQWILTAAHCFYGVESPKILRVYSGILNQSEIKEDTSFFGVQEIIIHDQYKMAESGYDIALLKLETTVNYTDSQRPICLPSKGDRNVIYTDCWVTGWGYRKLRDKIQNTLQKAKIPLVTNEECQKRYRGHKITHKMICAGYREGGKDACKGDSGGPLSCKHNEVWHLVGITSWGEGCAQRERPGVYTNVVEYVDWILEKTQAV
Chain of Factor XIa (P03951 19-387 partner): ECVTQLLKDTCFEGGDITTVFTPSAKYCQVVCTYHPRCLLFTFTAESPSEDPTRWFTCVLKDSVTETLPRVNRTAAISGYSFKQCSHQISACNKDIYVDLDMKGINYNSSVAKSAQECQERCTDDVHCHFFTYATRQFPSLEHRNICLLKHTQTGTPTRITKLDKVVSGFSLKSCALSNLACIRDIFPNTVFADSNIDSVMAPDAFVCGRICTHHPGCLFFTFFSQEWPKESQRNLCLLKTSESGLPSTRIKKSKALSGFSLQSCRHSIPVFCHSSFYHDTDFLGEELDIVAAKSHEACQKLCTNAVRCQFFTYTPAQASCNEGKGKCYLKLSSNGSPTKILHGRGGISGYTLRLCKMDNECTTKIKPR
Chain of human plasma kallikrein (P03952 391-638): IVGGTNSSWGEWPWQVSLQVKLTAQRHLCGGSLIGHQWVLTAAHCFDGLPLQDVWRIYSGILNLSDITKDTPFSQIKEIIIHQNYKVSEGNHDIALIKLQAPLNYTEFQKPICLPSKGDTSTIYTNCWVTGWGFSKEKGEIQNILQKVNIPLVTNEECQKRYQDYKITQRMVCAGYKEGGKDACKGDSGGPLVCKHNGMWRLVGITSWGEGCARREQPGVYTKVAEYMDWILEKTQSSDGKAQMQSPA
Chain of human plasma kallikrein (P03952 20-390 partner): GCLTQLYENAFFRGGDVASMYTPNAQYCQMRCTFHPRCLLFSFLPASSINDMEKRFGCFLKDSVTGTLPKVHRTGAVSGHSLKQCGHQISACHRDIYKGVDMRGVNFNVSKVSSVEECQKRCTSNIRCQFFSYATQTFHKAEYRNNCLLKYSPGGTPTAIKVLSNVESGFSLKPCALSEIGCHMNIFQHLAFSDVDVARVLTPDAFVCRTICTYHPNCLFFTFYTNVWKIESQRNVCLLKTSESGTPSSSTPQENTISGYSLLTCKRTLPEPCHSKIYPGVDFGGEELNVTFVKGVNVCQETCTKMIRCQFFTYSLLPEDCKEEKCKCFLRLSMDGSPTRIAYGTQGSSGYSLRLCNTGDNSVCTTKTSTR

SMILES | IC50 (human plasma kallikrein; [1]) [µM] | IC50 (Factor XIa; [2]) [nM] | IC50 (Factor XIa; [3]) [nM] | IC50 (human plasma kallikrein; μM, kinetic reads) [µM]
CC1(C)C[C@@H](c2ncc(-c3ccc(N)nc3F)[nH]2)N2C(=O)C=C(c3c(-n4cnnn4)ccc(Cl)c3F)C[C@@H]21 (relative stereo) [Example 336, (3S,8aR)-3-(5-(6-Amino-2-fluoropyridin-3-yl)-1H-imidazol-2-yl)-7-(3-chloro-2-fluoro-6-(1H-tetrazol-1-yl)phenyl)-1,1-dimethyl-2,3,8,8a-tetrahydroindolizin-5(1H)-one] | 0.0479 | 9.3 |  | 
O=C1C=C(c2c(C(F)F)ccc(Cl)c2F)C[C@H]2CC[C@@H](c3nc(F)c(-c4ccnc(CO)c4F)[nH]3)N12 [Example 27, (3S,8aR)-7-(3-Chloro-6-(difluoromethyl)-2-fluorophenyl)-3-(4-fluoro-5-(3-fluoro-2-(hydroxymethyl)pyridin-4-yl)-1H-imidazol-2-yl)-2,3,8,8a-tetrahydroindolizin-5(1H)-one] | 0.118 |  | > 100 | 
Cn1cnc(-c2c[nH]c([C@@H]3CCC4CC(c5c(-n6cnnn6)ccc(Cl)c5F)=CC(=O)N43)n2)n1 (stereo partly drawn) [Example 255, (3S)-7-[3-Chloro-2-fluoro-6-(tetrazol-1-yl)phenyl]-3-[4-(1-methyl-1,2,4-triazol-3-yl)-1H-imidazol-2-yl]-2,3,8,8a-tetrahydro-1H-indolizin-5-one] |  |  | > 100 | > 1
CS(=O)(=O)NC(=O)c1sc(-c2c[nH]c(C3CC[C@@H]4CC(c5c(-n6cc(C(F)(F)F)nn6)ccc(Cl)c5F)=CC(=O)N34)n2)cc1F (stereo partly drawn) [Example 192, 5-(2-((8aR)-7-(3-chloro-2-fluoro-6-(4-(trifluoromethyl)-1H-1,2,3-triazol-1-yl)phenyl)-5-oxo-1,2,3,5,8,8a-hexahydroindolizin-3-yl)-1H-imidazol-4-yl)-3-fluoro-N-(methylsulfonyl)thiophene-2-carboxamide] | 0.0295 | 5.4 |  | 
CO[C@H]1C[C@@H](c2nc(-c3ccc(N)nc3F)c[nH]2)N2C(=O)C=C(c3c(-n4cnnn4)ccc(Cl)c3F)CC12 (stereo partly drawn) [Example 285, (1 S,3S)-3-(4-(6-Amino-2-fluoropyridin-3-yl)-1H-imidazol-2-yl)-7-(3-chloro-2-fluoro-6-(1H-tetrazol-1-yl)phenyl)-1-methoxy-2,3,8,8a-tetrahydroindolizin-5(1H)-one] | 0.207 |  | 9.1 | 
CC(=O)Nc1cc(-c2cnc([C@@H]3CCC4CC(c5c(-n6cnnn6)ccc(Cl)c5F)=CC(=O)N43)[nH]2)c(Cl)cn1 (stereo partly drawn) [Example 18, N-[5-Chloro-4 [2-[(3S)-7-[3-Chloro-2-fluoro-6-(tetrazol-1-yl)phenyl]-5-oxo-2,3,8,8a-tetrahydro-1H-indolizin-3-yl]-1H-imidazol-5-yl]-2-pyridyl]acetamide] | 0.465 |  | 82.1 | 
C[C@H](CO)Oc1nccc(-c2cnc([C@@H]3CC[C@@H]4CC(c5c(-n6cnnn6)ccc(Cl)c5F)=CC(=O)N43)[nH]2)c1F (single isomer, unassigned) [Example 168, (3S,8a*R)-7-(3-chloro-2-fluoro-6-(1H-tetrazol-1-yl)phenyl)-3-(5-(3-fluoro-2-(((R)-1-hydroxypropan-2-yl)oxy)pyridin-4-yl)-1H-imidazol-2-yl)-2,3,8,8a-tetrahydroindolizin-5(1H)-one] | 0.0049 |  | 0.8 | 
Cc1cc(C(=O)Nc2nccc(-c3cnc([C@@H]4CC[C@@H]5CC(c6c(-n7cnnn7)ccc(Cl)c6F)=CC(=O)N54)[nH]3)c2F)on1 [Example 5, N-[4-[2-[(3S,8aR)-7-[3-Chloro-2-fluoro-6-(tetrazol-1-yl)phenyl]-5-oxo-2,3,8,8a-tetrahydro-1H-indolizin-3-yl]-1H-imidazol-5-yl]-3-fluoro-2-pyridyl]-3-methyl-isoxazole-5-carboxamide] | 0.0488 |  | 4.2 | 
O=C1C=C(c2c(-n3cnnn3)ccc(Cl)c2F)C[C@@H]2CC[C@@H](c3ncc(-c4ccnc([C@H](O)C(F)(F)F)c4F)[nH]3)N12 (single isomer, unassigned) [Example 170] | 0.0318 |  | 17.9 | 
O=C(O)c1nccc(-c2[nH]c([C@@H]3CC[C@@H]4CC(c5c(-n6cc(C(F)(F)F)nn6)ccc(Cl)c5F)=CC(=O)N43)nc2F)c1F [Example 34, 4-(2-((3S,8aR)-7-(3-Chloro-2-fluoro-6-(4-(trifluoromethyl)-1H-1,2,3-triazol-1-yl)phenyl)-5-oxo-1,2,3,5,8,8a-hexahydroindolizin-3-yl)-4-fluoro-1H-imidazol-5-yl)-3-fluoropicolinic acid] | 0.0328 |  | 0.6 | 
O=C1C=C(c2c(-n3cnnn3)ccc(Cl)c2F)C[C@H]2CC[C@H](c3nc(F)c(-c4ccnc(C5(O)CC5)c4)[nH]3)N12 [Example 179, (3R,8aR)-7-(3-chloro-2-fluoro-6-(1H-tetrazol-1-yl)phenyl)-3-(4-fluoro-5-(2-(1-hydroxycyclopropyl)pyridin-4-yl)-1H-imidazol-2-yl)-2,3,8,8a-tetrahydroindolizin-5(1H)-one] | 0.0014 |  | 0.5 | 

The next lines start with the values.

IC50 (human plasma kallikrein; [1]) [µM] | IC50 (Factor XIa; [2]) [nM] | IC50 (Factor XIa; [3]) [nM] | IC50 (human plasma kallikrein; μM, kinetic reads) [µM] | SMILES
0.0288 |  | 7.4 |  | C[C@H](C#N)c1nccc(-c2cnc([C@@H]3CCC4CC(c5c(-n6cnnn6)ccc(Cl)c5F)=CC(=O)N43)[nH]2)c1F (relative stereo) [Example 163, (2*S)-2-(4-(2-((3S)-7-(3-chloro-2-fluoro-6-(1H-tetrazol-1-yl)phenyl)-5-oxo-1,2,3,5,8,8a-hexahydroindolizin-3-yl)-1H-imidazol-5-yl)-3-fluoropyridin-2-yl)propanenitrile]
0.0007 | 0.2 |  |  | O=C(Nc1cnccc1-c1c[nH]c([C@@H]2CC[C@H]3CC(c4c(-n5cnnn5)ccc(Cl)c4F)=CC(=O)N32)n1)C1CC1 (relative stereo) [Example 250, N-(4-(24(3S,8aS*)-7-(3-choro-2-fluoro-6-(1H-tetrazol-1-yl)phenyl)-5-oxo-1,2,3,5,8,8a-hexahydroindolizin-3-yl)-1H-imidazol-4-yl)pyridin-3-yl)cyclopropanecarboxamide]
0.0222 |  | 5.4 |  | CC(C)(O)CCc1nccc(-c2cnc([C@@H]3CC[C@H]4CC(c5c(-n6cnnn6)ccc(Cl)c5F)=CC(=O)N43)[nH]2)c1F (single isomer, unassigned) [Example 159, (3*S,8a*S)-7-(3-chloro-2-fluoro-6-(1H-tetrazol-1-yl)phenyl)-3-(5-(3-fluoro-2-(3-hydroxy-3-methylbutyl)pyridin-4-yl)-1H-imidazol-2-yl)-2,3,8,8a-tetrahydroindolizin-5(1H)-one]
0.0045 |  | 0.6 |  | O=C(Nc1ccncc1-c1c[nH]c([C@@H]2CCC3CC(c4c(-n5cnnn5)ccc(Cl)c4F)=CC(=O)N32)n1)C1CC1 (stereo partly drawn) [Example 252, N-[3-[2-[(3S)-7-[3-Chloro-2-fluoro-6-(tetrazol-1-yl)phenyl]-5-oxo-2,3,8,8a-tetrahydro-1H-indolizin-3-yl]-1H-imidazol-4-yl]-4-pyridyl]cyclopropanecarboxamide]
0.0011 |  | 0.4 |  | CNc1nccc(-c2cnc([C@@H]3CC[C@@H]4CC(c5c(-n6cnnn6)ccc(Cl)c5F)=CC(=O)N43)[nH]2)c1F [Example 134, (3S,8aR)-7-(3-chloro-2-fluoro-6-(1H-tetrazol-1-yl)phenyl)-3-(5-(3-fluoro-2-(methylamino)pyridin-4-yl)-1H-imidazol-2-yl)-2,3,8,8a-tetrahydroindolizin-5(1H)-one]
